In paper PMC12453121, “The combined effects of tick defensin persulcatusin with conventional antibiotics and antimicrobial proteins/peptides against Staphylococcus aureus” (Microbiology, 2025):
Values joined by “and” are separate entries in the source; they are usually repeats but may differ in a detail not shown here. Equal entries are not always repeated. Where two headings read alike, the source gives them in different places. Where a SMILES comes first, the peptide text is derived from it. Bridges are numbered along the chain shown (N, C = ends). Where no end group is shown, it is not given here. [ ]: non-standard residue; d: D form. The star is where a group is joined. Ileψ(thiazoline)Cys = CC[C@H](C)[C@H](N)C1=N[C@H](C(=O)*)CS1; dOrn = NCCC[C@@H](N)C(=O)O

How the values were obtained:
S. aureus ATCC 29213 [1] = settings: for combined effect with IP (interpretation of FICI): named agent combined with IP, S. aureus ATCC 29213
Experimental: A checkerboard assay was performed to evaluate the combined effect of IP and conventional antibiotics using the broth microdilution method [3031] with a final inoculum concentration of 5×10^5 c.f.u. ml^−1. Bacterial cells cultured in MHB at 30 °C were suspended in MHB or cation-adjusted MHB (caMHB) for daptomycin treatment. Bacterial suspensions were dispensed into 96-well round polypropylene plates (Watson Bio Lab, Tokyo, Japan) at an inoculum concentration of 5.0×10^5 c.f.u. ml^−1. […] After incubation at 30 °C, the OD of each well was measured using a microplate reader (MTP-310; Corona Electric Co., Ltd., Ibaraki, Japan) at 660 nm (OD660). […] The fractional inhibitory concentration (FIC) was calculated as the MIC of drug A in combination with drug B divided by drug A alone. The FIC index (FICI) was calculated as the sum of each FIC, and the lowest FICI for each combination was interpreted as follows: FICI of <0.5 was defined as synergy, FICI of ≥0.5 but <1 was defined as partial synergy, FICI of ≥1 but <4 was defined as an additive effect or irrelevant and FICI of ≥4 was defined as antagonistic.

S. aureus ATCC 29213 [2] = experiment: Killing kinetic assay of daptomycin with or without IP pretreatment; type: cell-based, Staphylococcus aureus; settings: c.f.u. count, triplicate
Experimental: To examine the influence of S. aureus pretreated with IP on the efficacy of daptomycin against bacterial cells, a killing kinetic assay based on a modification of Grein’s method was conducted. Bacterial cells grown in MHB to the exponential growth phase were incubated with 16 µg ml^−1 IP (8×MIC) at 37 °C. Since IP interacts with the cell surface of S. aureus, causing depolarization within 15 min after incubation, the duration of the pretreatment with IP was set to […]. The cells were then centrifuged (5,000 g, 5 min, 25 °C), and the supernatant was discarded to remove IP. Pretreated cells were resuspended in caMHB with or without 10 µg ml^−1 daptomycin (10×MIC) and then incubated at 37 °C for 0, 15, 30, 60 and 120 min. The bacterial cells were then serially diluted with sterile PBS, and each dilution was plated on TSA plates. The colonies were left to incubate at 37 °C and were subsequently counted.

S. aureus ATCC 29213 [3] = experiment: Killing kinetic assay of IP or vancomycin in growth and non-growth states; type: cell-based, Staphylococcus aureus; settings: 30 °C; for survival rate in the non-growth state: 1×10^8 c.f.u./ml, within 0.5 h then constant, % of c.f.u./ml at 0 h, triplicate; for survival rate in the non-growth state / time after which bactericidal activity / reduction of survival rate appeared in growth cells: IP 32 µg/ml or vancomycin 16 µg/ml (8×MIC); for time after which bactericidal activity / reduction of survival rate appeared in growth cells: growth state (TSB, LB Lennox or MHB)
Experimental: To study the antimicrobial effect of IP on S. aureus cells in both the growth and non-growth states, a killing kinetic assay of IP against S. aureus incubated in nutrient medium was performed as per the method described below or in the physiological buffer (PBS). Bacterial cells grown in TSB for ~24 h were adjusted to 1×10^8 c.f.u. ml^−1 in TSB, LB Lennox broth, MHB or PBS with 32 µg ml^−1 IP or 16 µg ml^−1 vancomycin, as control for antibiotic inhibited cell wall biosynthesis via interaction with lipid II, followed by incubation at 30 ℃ for a further 0.5, 1, 2, 4, 6 and 8 h. Bacterial cells were then serially diluted with sterile PBS, plated on TSA and incubated overnight at 37 °C. Colony counts were then determined, and c.f.u. ml^−1 was calculated.

S. aureus [4] = settings: IP on cell surface of S. aureus; cited from earlier work
S. aureus [5] = tested on: S. aureus; parameters: method as in PMID 22705395; settings: cited from earlier work
[6] = named agent combined with IP (0.25–16 µg/ml), checkerboard broth microdilution in MHB (caMHB for daptomycin), 5×10^5 c.f.u./ml, 30 °C, no growth = OD660 <0.05, lowest FICI

Compound | combined effect with IP (interpretation of FICI) (S. aureus ATCC 29213 [1]; checkerboard) | FICI (fractional inhibitory concentration index) (S. aureus ATCC 29213 [1]; [6]) | further results
CCCCCCCCCC(=O)N[C@@H](Cc1c[nH]c2ccccc12)C(=O)N[C@H](CC(N)=O)C(=O)N[C@@H](CC(=O)O)C(=O)N[C@@H]1C(=O)NCC(=O)N[C@@H](CCCN)C(=O)N[C@@H](CC(=O)O)C(=O)N[C@H](C)C(=O)N[C@@H](CC(=O)O)C(=O)NCC(=O)N[C@H](CO)C(=O)N[C@@H]([C@H](C)CC(=O)O)C(=O)N[C@@H](CC(=O)c2ccccc2N)C(=O)O[C@@H]1C [daptomycin, Daptomycin] | additive, irrelevant or antagonistic | – | FICI (fractional inhibitory concentration index) (S. aureus ATCC 29213 [1]): exceeded 2.0; MIC in the presence of sublethal concentrations of IP compared with absence of IP (S. aureus ATCC 29213 [1]; IP 0.25 to 1 µg/ml for nisin, 0.25 to 4 µg/ml for daptomycin, checkerboard): higher; time to significant reduction in bacterial cells (bactericidal activity) (S. aureus ATCC 29213 [2]; daptomycin 10 µg/ml (10×MIC), caMHB, 37 °C, no pretreatment, P<0.05): ≤ 2 h
Lysozyme | Partial synergistic | – | –
Gentamycin | additive or irrelevant | 1.0 | –
Nisin (ITSISLCTPGCKTGALMGCNMKTATCHCSIHVSK; also: lantibiotic: lanthionine rings and dehydro residues, not placed; UniProt P13068 24-57, looked up) | Partial synergistic | – | FICI (fractional inhibitory concentration index) (S. aureus ATCC 29213 [1]): 0.63; MIC in the presence of sublethal concentrations of IP compared with absence of IP (S. aureus ATCC 29213 [1]): higher
O=C(O)c1cn(C2CC2)c2cc(N3CCNCC3)c(F)cc2c1=O [ciprofloxacin, Ciprofloxacin] | Partial synergistic | – | –
Lysostaphin | Partial synergistic | 0.75 | –
CN[C@H](CC(C)C)C(=O)N[C@H]1C(=O)N[C@@H](CC(N)=O)C(=O)N[C@H]2C(=O)N[C@H]3C(=O)N[C@H](C(=O)N[C@H](C(=O)O)c4cc(O)cc(O)c4-c4cc3ccc4O)[C@H](O)c3ccc(c(Cl)c3)Oc3cc2cc(c3O[C@@H]2O[C@H](CO)[C@@H](O)[C@H](O)[C@H]2O[C@H]2C[C@](C)(N)[C@H](O)[C@H](C)O2)Oc2ccc(cc2Cl)[C@H]1O [vancomycin, Vancomycin] | additive or irrelevant | – | FICI (fractional inhibitory concentration index) (S. aureus ATCC 29213 [1]): 2.0; survival rate in the non-growth state (S. aureus ATCC 29213 [3]; PBS): no reduction; time after which bactericidal activity / reduction of survival rate appeared in growth cells (S. aureus ATCC 29213 [3]): 8 h
CC[C@H](C)[C@H](NC(=O)[C@H](CCCCN)NC(=O)[C@H](CCC(=O)O)NC(=O)[C@H](CCCCN)NC(=O)[C@H](CO)NC(=O)[C@H](CCCCN)NC(=O)[C@H](CCCNC(=N)N)NC(=O)[C@H](Cc1ccccc1)NC(=O)[C@H](Cc1ccccc1)NC(=O)[C@H](CC(=O)O)NC(=O)CNC(=O)[C@H](CC(C)C)NC(=O)[C@@H](N)CC(C)C)C(=O)NCC(=O)N[C@@H](CCCCN)C(=O)N[C@@H](CCC(=O)O)C(=O)N[C@@H](Cc1ccccc1)C(=O)N[C@@H](CCCCN)C(=O)N[C@@H](CCCNC(=N)N)C(=O)N[C@H](C(=O)N[C@H](C(=O)N[C@@H](CCC(N)=O)C(=O)N[C@@H](CCCNC(=N)N)C(=O)N[C@H](C(=O)N[C@@H](CCCCN)C(=O)N[C@@H](CC(=O)O)C(=O)N[C@@H](Cc1ccccc1)C(=O)N[C@@H](CC(C)C)C(=O)N[C@@H](CCCNC(=N)N)C(=O)N[C@@H](CC(N)=O)C(=O)N[C@@H](CC(C)C)C(=O)N[C@H](C(=O)N1CCC[C@H]1C(=O)N[C@@H](CCCNC(=N)N)C(=O)N[C@H](C(=O)N[C@@H](CCC(=O)O)C(=O)N[C@@H](CO)C(=O)O)[C@@H](C)O)C(C)C)[C@@H](C)CC)C(C)C)[C@@H](C)CC [LL-37] | synergistic | 0.25 | –
Cc1nnc(SCC2=C(C(=O)O)N3C(=O)[C@@H](NC(=O)Cn4cnnn4)[C@H]3SC2)s1 [cefazolin, Cefazolin] | Partial synergistic | 0.75 | –
O=C(N[C@H](CO)[C@H](O)c1ccc([N+](=O)[O-])cc1)C(Cl)Cl [chloramphenicol, Chloramphenicol] | additive or irrelevant | 2.0 | –
NC[C@H]1O[C@H](O[C@H]2[C@H](O)[C@@H](O[C@H]3O[C@H](CO)[C@@H](O)[C@H](N)[C@H]3O)[C@H](N)C[C@@H]2N)[C@H](O)[C@@H](O)[C@@H]1O [kanamycin, Kanamycin] | additive or irrelevant | 2.0 | –
CN(C)[C@@H]1C(O)=C(C(N)=O)C(=O)[C@@]2(O)C(O)=C3C(=O)c4c(O)cccc4[C@@](C)(O)[C@H]3C[C@@H]12 [tetracycline, Tetracycline] | Partial synergistic | 0.75 | –
CC[C@H]1OC(=O)[C@H](C)[C@@H](O[C@H]2C[C@@](C)(OC)[C@@H](O)[C@H](C)O2)[C@H](C)[C@@H](O[C@@H]2O[C@H](C)C[C@H](N(C)C)[C@H]2O)[C@](C)(O)C[C@@H](C)C(=O)[C@H](C)[C@@H](O)[C@]1(C)O [erythromycin, Erythromycin] | additive or irrelevant | 2.0 | –
GFGCPFNQGACHRHCRSIGRRGGYCAGLFKQTCTCYSR (disulfide (positions not given here)) [IP, Persulcatusin, Tick defensin isolated from the hard tick Ixodes persulcatus, 38 aa, chemically synthesized, disulphide bridges formed] | – | – | effect of short-term IP pretreatment on killing by daptomycin (S. aureus ATCC 29213 [2]; IP 16 µg/ml (8×MIC) for 5 min at 37 °C, removed, then daptomycin 10 µg/ml in caMHB): reduced the bactericidal activity of daptomycin; time to depolarization after incubation (S. aureus [4]): ≤ 15 min; survival rate in the non-growth state (S. aureus ATCC 29213 [3]; PBS): ~ 70%; time to bactericidal activity in PBS (non-growth state) (S. aureus ATCC 29213 [3]; PBS, IP 8×MIC, survival constant thereafter): ≤ 0.5 h; time after which bactericidal activity / reduction of survival rate appeared in growth cells (S. aureus ATCC 29213 [3]): 2 h
CC1(C)S[C@@H]2[C@H](NC(=O)[C@H](N)c3ccccc3)C(=O)N2[C@H]1C(=O)O [ampicillin, Ampicillin] | synergistic | 0.375 and 0.38 | –
CC[C@H](C)[C@H](N)C1=N[C@H](C(=O)N[C@@H](CC(C)C)C(=O)N[C@H](CCC(=O)O)C(=O)N[C@H](C(=O)N[C@H]2CCCCNC(=O)[C@H](CC(N)=O)NC(=O)[C@@H](CC(=O)O)NC(=O)[C@H](Cc3cnc[nH]3)NC(=O)[C@@H](Cc3ccccc3)NC(=O)[C@H]([C@@H](C)CC)NC(=O)[C@@H](CCCN)NC2=O)[C@@H](C)CC)CS1 [bacitracin, Bacitracin] ({Ileψ(thiazoline)Cys}-L[dE]IK[dOrn]I[dF]H[dD]N; lactam 4-C (inferred); N-terminus assumed) | Partial synergistic | 0.50 | –
areucin-1: antimicrobial peptide isolated from the marine polychaete lugworm Arenicola marina (printed arenicin-1 in b7) (RWCVYAYVRVRGVLVRYRRCW; ends and bridges not checked; cysteine pairing not given here; UniProt Q5SC60 182-202, looked up) | – | – | FICI with chloramphenicol (S. aureus [5]; areucin-1 combined with chloramphenicol against S. aureus): 0.5; FICI with erythromycin (S. aureus [5]; areucin-1 combined with erythromycin against S. aureus): 0.375
